Where no end group is shown, it is not given here.
Experiments:
E. coli E423-17 = type: cell-based, Escherichia coli; settings: MHB 100%
E. coli E423-17 biofilms = experiment: Disruption of preformed biofilms in vitro (XTT); type: cell-based, Escherichia coli; settings: for effect on biofilms: 24 h preformed biofilm
Description: Effects of Peptides on Established Biofilms in Vitro. Bacteria (S. aureus USA300 LAC and E. coli E423-17) were grown in rich TSB media overnight. A second inoculation was made the next day to reach an exponential phase (OD600˜0.4). Microtiter plates (96 wells, Corning Costar Cat no. 3595), after aliquoting with 180 μL of the culture to each well, were incubated at 37° C. for 24 hours to form biofilms in rich TSB. Media were aspirated post incubation, and the attached biofilms were washed with 1×PBS to remove the planktonic bacteria. […] Biofilms treated with water served as the positive control, while media without bacterial inoculation served as the negative control. Live cells in the biofilms were quantitated using XTT as described above. Absorbance was read at 450 nm (only media with XTT containing wells served as the blank) using a ChroMate™ microtiter plate reader. Percentage biofilm growth for the peptide was plotted by assuming 100% biofilm growth in bacterial control alone. The data were represented as mean±SD; plots were generated using GraphPad prism 7, where * indicates p<0.05, **p<0.01, and ***P<0.001, and ****p<0.0001 (one-way analyses of variance).

MRSA USA300 = experiment: Inhibition of bacterial attachment; type: cell-based, Staphylococcus aureus; settings: Example 1, 4× and 8×MIC
Description: Inhibition of Bacterial Attachment. Bacterial attachment is the initial step for biofilm formation. For this experiment, an overnight culture of MRSA USA300 was grown overnight in TSB media to an optical density (OD600) of ˜1.0. […] The plates were then incubated at 37° C. for 1 hour. Next, the medium was aspirated and washed with 1×PBS, and 200 μL of TSB containing XTT 10% [2,3-bis(2-methyloxy-4-nitro-5-sulfophenyl)-2H-tertazolium-5-carboxanilide](ATCC, VA) solution was added. After incubation at 37° C. for 2 hours, absorbance was read at 450 nm using a ChroMate™ microtiter plate reader. TSB containing 10% XTT served as a blank, while bacterial culture treated with water served as a positive control. Percentages of viable cells in biofilms were plotted by assuming 100% growth in water treated control.
Bacterial attachment was conducted (Mishra, et al. (2016) ACS Med. Chem. Lett., 77(1):117-121; Duplantier, et al. (2013) Front. Immunol., 4: 143). In brief, an overnight culture of MRSA USA300 or P. aeruginosa E411-17 was grown overnight in TSB media to an optical density (OD600) of ˜1.0. […] The plates were then incubated at 37° C. for 1 hour. […] After incubation at 37° C. for 2 hours, absorbance was read at 450 nm using a ChroMate® microtiter plate reader. […]

pepsin = target: T1, pepsin (Sus scrofa, UniProt P00791); type: in vitro ADME, mammalian
T1 construct: purchased Thermo Fisher Scientific
T1 sequence (P00791 60-385): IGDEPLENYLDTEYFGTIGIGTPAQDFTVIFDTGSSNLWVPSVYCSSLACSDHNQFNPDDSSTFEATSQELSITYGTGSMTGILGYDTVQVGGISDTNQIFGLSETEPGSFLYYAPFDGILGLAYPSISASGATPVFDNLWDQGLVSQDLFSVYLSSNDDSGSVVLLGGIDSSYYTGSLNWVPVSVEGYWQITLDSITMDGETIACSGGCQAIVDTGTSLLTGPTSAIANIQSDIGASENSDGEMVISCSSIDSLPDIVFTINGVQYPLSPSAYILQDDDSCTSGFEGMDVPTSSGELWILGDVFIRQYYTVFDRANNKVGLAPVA
Description: A solution of peptide/protease (40:1 molar ratio) was made in phosphate-buffered saline (PBS; pH 7.1, Gibco, NY) and incubated at 37° C. for 1 hour. As controls, peptides without proteases were also incubated in the same manner. Then, aliquots of 10 μL were transferred to a 96-well polystyrene microplate and mixed with the exponential-phase MRSA USA300 culture as performed in the antibacterial activity assays above.

| Compound | Antimicrobial activity (MIC) (E. coli E423-17) | effect on biofilms (E. coli E423-17 biofilms; 12.5% MHB) | effect on biofilms (E. coli E423-17 biofilms; 100% MHB) | effect on live cells in biofilms (E. coli E423-17 biofilms; 24 hour preformed biofilms, 16 μM) | reduction of live bacteria (E. coli E423-17 biofilms; 24 hour preformed biofilms, treated at 8 μM) [%] | anti-attachment ability (MRSA USA300) | activity after protease incubation (pepsin) |
| --- | --- | --- | --- | --- | --- | --- | --- |
| CC[C@H](C)[C@H](NC(=O)[C@H](CCCCN)NC(=O)[C@H](CCC(=O)O)NC(=O)[C@H](CCCCN)NC(=O)[C@H](CO)NC(=O)[C@H](CCCCN)NC(=O)[C@H](CCCNC(=N)N)NC(=O)[C@H](Cc1ccccc1)NC(=O)[C@H](Cc1ccccc1)NC(=O)[C@H](CC(=O)O)NC(=O)CNC(=O)[C@H](CC(C)C)NC(=O)[C@@H](N)CC(C)C)C(=O)NCC(=O)N[C@@H](CCCCN)C(=O)N[C@@H](CCC(=O)O)C(=O)N[C@@H](Cc1ccccc1)C(=O)N[C@@H](CCCCN)C(=O)N[C@@H](CCCNC(=N)N)C(=O)N[C@H](C(=O)N[C@H](C(=O)N[C@@H](CCC(N)=O)C(=O)N[C@@H](CCCNC(=N)N)C(=O)N[C@H](C(=O)N[C@@H](CCCCN)C(=O)N[C@@H](CC(=O)O)C(=O)N[C@@H](Cc1ccccc1)C(=O)N[C@@H](CC(C)C)C(=O)N[C@@H](CCCNC(=N)N)C(=O)N[C@@H](CC(N)=O)C(=O)N[C@@H](CC(C)C)C(=O)N[C@H](C(=O)N1CCC[C@H]1C(=O)N[C@@H](CCCNC(=N)N)C(=O)N[C@H](C(=O)N[C@@H](CCC(=O)O)C(=O)N[C@@H](CO)C(=O)O)[C@@H](C)O)C(C)C)[C@@H](C)CC)C(C)C)[C@@H](C)CC [LL-37] | active | dose-dependent antibiofilm effect | subtle effect |  |  |  |  |
| RRWWRWWR-NH2 [W543] |  |  |  | almost eliminated | ~40 | did not show anti-attachment ability | retained antibacterial activity |

— patent US20250101062A1, “ANTIMICROBIAL PEPTIDES” (Board of Regents of the University of Nebraska, priority 2023, published 2025)
